Results: patent US20250281506A1, “APPLICATION OF HYDROXYPROGESTERONE CAPROATE IN ENHANCING TUMOR TREATMENT EFFECT” (SHENZHEN EVERGREEN THERAPEUTICS CO., LTD., priority 2021, published 2025)
“Also recorded” adds a separate entry of the source.

Legend:
CT26 tumor [1] = assay: BALB/c mouse CT26 tumor model, tumor volume / tumor inhibition rate; type: in vivo, BALB/c mice; set-up: Tumor Inhibition Rate (Compared with Control Group): concentration or dose not given beside the values; conditions: for Tumor Inhibition Rate (Compared with Control Group): CT26 model
Description: Female BALB/c mice aged 6-8 weeks with a body weight of approximately 20 grams were used. CT26 cells (5.0×106) dissolved in 100 μL of PBS were subcutaneously injected into BALB/c mice. When the tumor volume reached approximately 100 mm^3, the experimental animals were randomly divided into control and various treatment groups for the experiment.
Lenvatinib was administered orally once daily at a dosage of 10 mg/kg. Hydroxyprogesterone caproate was administered via intraperitoneal injection (abbreviated as i.p. in the table below) every two days. Anti-PD-1 antibody (RMP1-14), diluted in PBS, was administered every three days at a dosage of 200 μg per mouse.
Tumor size was measured using calipers twice a week for two-dimensional assessment. Tumor volume was calculated using the formula V=(X2Y)/2, where X and Y represent the shorter and longer diameters of the tumor, respectively, expressed in mm^3.

MC38/hPD-L1 tumor = assay: Humanized PD-1 mouse MC38/hPD-L1 tumor model; type: in vivo, humanized PD-1 mice
Description: Humanized PD-1 mice, female, aged 6-8 weeks, weighing approximately 20 grams, were used. MC38/hPD-L1 cells (5.0×106) dissolved in 100 μL PBS were injected subcutaneously into the humanized PD-1 mice. Upon reaching a tumor volume of approximately ˜100 mm^3, experimental animals were randomly assigned to control and various treatment groups and subsequently initiated with drug administration.
Lenvatinib (Eisai, Japan) was administered orally once daily at a dose of 10 mg/kg. Hydroxyprogesterone Caproate was administered via intraperitoneal injection every two days. Pembrolizumab was administered every three days at a dose of 200 μg per mouse. The duration of drug administration lasted around 20 days.
2) Tumor volume measured twice weekly.

CT26 tumor [2] = assay: BALB/c mouse CT26 tumor model with anti-PD-L1 antibody 10F.9G2; type: in vivo, BALB/c mice; conditions: anti-PD-L1 10F.9G2
Description: Female BALB/c mice aged 6-8 weeks, weighing approximately 20 grams, were used. CT26 cells (5.0×106) dissolved in 100 μL PBS were subcutaneously injected into the BALB/c mice. When the tumor volume reached ˜100 mm^3, the experimental animals were randomly assigned to control and treatment groups, and drug administration commenced.
Lenvatinib (Eisai, Japan) was administered orally once daily at a dose of 10 mg/kg; Hydroxyprogesterone Caproate was administered via intraperitoneal injection every two days; 10F.9G2 was administered every three days at a dose of 200 μg/mouse. Drug administration continued for approximately 20 days.
2) Tumor volume was measured twice a week, and its size was calculated using the formula: […]

Renca tumor = assay: BALB/c mouse Renca renal cell carcinoma tumor model, tumor inhibition rate; type: in vivo, BALB/c mice; set-up: Tumor Inhibition Rates (Compared with Control Group): concentration or dose not given beside the values; conditions: for Tumor Inhibition Rates (Compared with Control Group): Renca model
Description: BALB/c female mice, aged 6-8 weeks and weighing around 20 grams, were utilized. Renca cells (3.0×106) dissolved in 100 μL PBS were subcutaneously injected into the BALB/c mice. Upon reaching a tumor volume of about 70 mm^3, experimental animals were randomly distributed into control and treatment groups.
Lenvatinib was administered orally once daily at a dosage of 7.5 mg/kg; hydroxyprogesterone caproate was administered intraperitoneally (abbreviated as i.p. in the table) every two days. Anti-PD-1 antibody (BioXCell, Supplier: Yicon (Beijing) Medical Technology Inc.) was diluted in PBS and administered every four days at a dose of 100 μg per mouse.
Tumor size was measured biweekly using calipers for two-dimensional measurements. The volume was calculated using the formula and expressed in mm^3: V=(X^2Y)/2, where X and Y represent the shorter and longer diameters of the tumor, respectively.

SMILES	Tumor suppression effect (in words) (CT26 tumor [1]; BALB/c mouse CT26 tumor model, HPC 20 mg/kg i.p., Lenvatinib 10 mg/kg p.o., RMP1-14 200 μg/mouse)	Tumor Inhibition Rate (Compared with Control Group) (CT26 tumor [1]; Day 0)	Tumor Inhibition Rate (Compared with Control Group) (CT26 tumor [1]; Day 4)	Tumor Inhibition Rate (Compared with Control Group) (CT26 tumor [1]; Day 7)	Tumor Inhibition Rate (Compared with Control Group) (CT26 tumor [1]; Day 11)	Tumor Inhibition Rate (Compared with Control Group) (CT26 tumor [1]; Day 14)	Tumor Inhibition Rate (Compared with Control Group) (CT26 tumor [1]; Day 18)	Tumor Inhibition Rate (Compared with Control Group) (CT26 tumor [1]; Day 20)	Anti-tumor effect (in words) (MC38/hPD-L1 tumor)	Anti-tumor effect (in words) (CT26 tumor [2])	Tumor suppression effect (in words) (Renca tumor; BALB/c mouse Renca tumor model)	Tumor Inhibition Rates (Compared with Control Group) (Renca tumor; Day 6)	Tumor Inhibition Rates (Compared with Control Group) (Renca tumor; Day 9)	Tumor Inhibition Rates (Compared with Control Group) (Renca tumor; Day 13)	Tumor Inhibition Rates (Compared with Control Group) (Renca tumor; Day 16)	Tumor Inhibition Rates (Compared with Control Group) (Renca tumor; Day 20)
CCCCCC(=O)O[C@]1(C(C)=O)CC[C@H]2[C@@H]3CCC4=CC(=O)CC[C@]4(C)[C@H]3CC[C@@]21C [HPC, Hydroxyprogesterone caproate]	did not exhibit a favorable tumor suppression effect; also recorded: promoting tumor growth	0.00%	3.66%	−14.89%	−13.61%	−31.32%	−47.15%	−37.09%	did not exhibit significant tumor inhibitory effects	did not exhibit significant tumor suppression	exhibits a certain degree of tumor suppression	0.00%	40.00%	48.51%	43.95%	56.59%
COc1cc2nccc(Oc3ccc(NC(=O)NC4CC4)c(Cl)c3)c2cc1C(N)=O [Lenvatinib]												0.00%	22.92%	48.51%	55.37%	70.68%
